Entries after “also recorded” stand apart in the source; their conditions may differ. Like-named read-outs stand apart in the source and are kept apart here.
What was measured:
[1] = system: collagen-induced arthritis; details: for average overall clinical score at plateau: around day 18-19
Procedure: (§1) The emulsion was cooled in an ice water bath during the formulation. The final concentration of collagen was 1 mg/mL. The emulsion is prepared fresh immediately prior to injection.
as §1
Experimental groups for the study are outlined in Table 5A. […] Animals in group one received no immunization.
IHC markers for staining were selected after evaluating clinical and histopathological scores for animals. After the skin was removed, the right hind limb was snap frozen in liquid nitrogen and RNA and protein analysis was performed.
Blood samples were collected from animals in groups 1-7 via cardiac puncture following euthanasia on Day 21. […] Serum was divided into two separate tubes and stored at −75±15° C. One tube was used to analyze IgG1, and the other tube was reserved for additional analyses.
H&E-stained slides of designated tissues from animals were transferred to an independent pathologist for microscopic evaluation (SPFBio). Samples were assigned the histologic grades based on the severity of change from tissue where CIA was not induced. Histology grades assigned were as follows: grade 1 (minimal change), grade 2 (mild change), grade 3 (moderate change), grade 4 (marked change), and grade 5 (severe change). A grade may be assigned for each indicator of disease severity: inflammation, mixed cell; granulation tissue; increased bone, periosteum; increased eroded surface, bone and erosion/ulcer, cartilaginous. […] Moderate inflammation was also associated with increased edema fluid, fibrin, and cellular debris. Marked mixed cell inflammation was characterized by dense, widespread accumulations of neutrophils and macrophages with lesser number of lymphocytes within one or more joint spaces, synovium and periarticular soft tissues. Marked inflammation was also associated with abundant edema fluid, fibrin, and cellular debris.
Marked granulation tissue (pannus) was associated with inflammation and was characterized by widespread fibrovascular connective tissue that expanded/replaced the periarticular soft tissues of one or more joints, extended into/expanded joint spaces, was contiguous with areas of erosion/ulcer in articular cartilage and/or increased eroded surface of bone, and variably extended along the diaphysis.
Marked increased periosteal bone (periosteal bone formation) was characterized by extensive areas of increased bone matrix and numerous prominent osteoblasts lining trabecular surfaces along the metaphysis and/or diaphysis of one or more bones.

[2] = system: collagen-induced arthritis; experiment: CIA model: histopathologic analysis of hind limbs; type: in vivo, Lewis rats; details: for Erosion/Ulcer, cartilaginous, Marked (number of animals) / Erosion/Ulcer, cartilaginous, Mild (number of animals) / Erosion/Ulcer, cartilaginous, Minimal (number of animals) / Erosion/Ulcer, cartilaginous, Moderate (number of animals) / Granulation tissue, Marked (number of animals) / Granulation tissue, Mild (number of animals) / Granulation tissue, Minimal (number of animals) / Granulation tissue, Moderate (number of animals) / Increased bone, periosteum, Marked (number of animals) / Increased bone, periosteum, Mild (number of animals) / Increased bone, periosteum, Minimal (number of animals) / Increased bone, periosteum, Moderate (number of animals) / Increased eroded surface, bone, Marked (number of animals) / Increased eroded surface, bone, Mild (number of animals) / Increased eroded surface, bone, Minimal (number of animals) / Increased eroded surface, bone, Moderate (number of animals) / Mixed cell inflammation, Marked (number of animals) / Mixed cell inflammation, Mild (number of animals) / Mixed cell inflammation, Minimal (number of animals) / Mixed cell inflammation, Moderate (number of animals) / No Visible Lesions (number of animals): hind limbs, CIA induced, 8 animals examined
Description: Mean histopathologic scores for tissue samples from animals in Groups 1-6 are depicted in FIG. 22A, and day 21 histology scores for all animals are illustrated in FIG. 22B.

[3] = Group 5 (CIA + Compound A 1 mg/kg), 1 mg/kg
[4] = Group 6 (CIA + Compound A 3 mg/kg)
[5] = Group 7 (CIA + Compound A 10 mg/kg), two out of eight samples

Cn1cc(-c2ccccc2)c(-c2cn(C)c(=O)c3[nH]c(-c4cnn(C(F)(F)F)c4)cc23)cc1=O [Compound A, 6-methyl-4-(1-methyl-2-oxo-5-phenyl-1,2-dihydropyridin-4-yl)-2-(1-(trifluoromethyl)-1H-pyrazol-4-yl)-1,6-dihydro-7H-pyrrolo[2,3-c]pyridin-7-one]
plateau increase in paw volume relative to day 0 ([1]; 1 mg/kg (group 5), around day 18): approximately 50%
animals exhibiting disease ([1]; 1 mg/kg (group 5), day 14): 5/8
animals exhibiting disease ([1]; 1 mg/kg (group 5), day 18): 7/8
percent inhibition in clinical score relative to GSK620 ([1]; 1 mg/kg and 3 mg/kg vs GSK620 10 mg/kg): nearly twice as high
percent inhibition of increase in paw volume relative to GSK620 ([1]; 1 mg/kg or 3 mg/kg vs GSK620 10 mg/kg): more than twice
plateau increase in paw volume relative to day 0 ([1]; 3 mg/kg): approximately 40%
animals exhibiting disease ([1]; 3 mg/kg (group 6), day 15): 4/8
animals exhibiting disease ([1]; 3 mg/kg (group 6), day 18): all animals
animals exhibiting disease ([1]; 10 mg/kg (group 7), day 15): 4/8
animals exhibiting disease ([1]; 10 mg/kg (group 7), day 18): 7/8
decrease in paw volume relative to CIA+Vehicle ([1]; 10 mg/kg PO QD, Day 21): ~79%
reduction in clinical score compared to vehicle-treated animals ([1]; 10 mg/kg PO QD, Day 21): ~71%
rat anti-collagen IgG1 antibodies, lower than vehicle treated animals ([1]; 10 mg/kg, day 21, serum): > 98%
plateau increase in paw volume relative to day 0 ([1]; 10 mg/kg, Group 7): approximately 35%
rat anti-collagen IgG1 antibodies relative to untreated CIA animals ([1]; 1, 3 and 10 mg/kg, day 21, p<0.01): significantly decreased
average overall clinical score at plateau ([1]; group 5 (1 mg/kg)): 5
average overall clinical score at plateau ([1]; group 6 (3 mg/kg)): 4
average overall clinical score at plateau ([1]; group 7 (10 mg/kg)): 4
Samples with no pathologic observations ([2]; 1 mg/kg, Group 5): One out of eight
Samples with no pathologic observations ([2]; 3 mg/kg, Group 6): Two out of eight
Samples with no pathologic observations ([2]; 10 mg/kg, Group 7): Six out of eight
Animals exhibiting normal limb/joint pathology ([2]; 10 mg/kg, day 21): 6/8
Erosion/ulcer in articular cartilage, grade [2, 3]: mild and mild to moderate
Granulation tissue (pannus), grade [2, 3]: mild and mild to moderate
Increased eroded surface of bone (bone resorption), grade [2, 3]: mild and mild to moderate
Increased periosteal bone (periosteal bone formation), grade [2, 3]: mild and mild to moderate
Mixed cell inflammation, grade [2, 3]: moderate to marked
Erosion/ulcer in articular cartilage, grade [2, 4]: mild
Increased eroded surface of bone (bone resorption), grade [2, 4]: mild
Increased periosteal bone (periosteal bone formation), grade [2, 4]: mild
Mixed cell inflammation, grade [2, 4]: moderate
Granulation tissue (pannus), grade ([2]; Group 6 (CIA + Compound A 3 mg/kg), 3 mg/kg): mild and mild to moderate
Histopathological observations, representative sample/image ([2]; Group 7 (CIA + Compound A 10 mg/kg), FIG. 23G, 23I, 10 mg/kg): no histopathological observations noted; also recorded: normal joint pathology
Erosion in the articular cartilage, grade [2, 5]: mild
Granulation tissue (pannus), grade [2, 5]: mild
Increased periosteal bone (periosteal bone formation), grade [2, 5]: minimal
Mixed cell inflammation, grade [2, 5]: mild to moderate
Pathologic observations relative to CIA-induced group (Group 2) ([2]; Groups 5-7 (Compound A 1, 3, 10 mg/kg)): all decreased in severity, extent, and distribution
Severity of arthritic histopathology versus vehicle- and GSK620-treated animals ([2]; all tested doses (1, 3, 10 mg/kg)): dose-dependent reduction in the severity of arthritic histopathology; also recorded: significant dose-dependent decrease in the incidence and severity of collagen-induced arthritis
Erosion/Ulcer, cartilaginous, Marked (number of animals) ([2]; 1 mg/kg): 0
Erosion/Ulcer, cartilaginous, Mild (number of animals) ([2]; 1 mg/kg): 6
Erosion/Ulcer, cartilaginous, Minimal (number of animals) ([2]; 1 mg/kg): 0
Erosion/Ulcer, cartilaginous, Moderate (number of animals) ([2]; 1 mg/kg): 1
Granulation tissue, Marked (number of animals) ([2]; 1 mg/kg): 0
Granulation tissue, Mild (number of animals) ([2]; 1 mg/kg): 3
Granulation tissue, Minimal (number of animals) ([2]; 1 mg/kg): 0
Granulation tissue, Moderate (number of animals) ([2]; 1 mg/kg): 3
Increased bone, periosteum, Marked (number of animals) ([2]; 1 mg/kg): 0
Increased bone, periosteum, Mild (number of animals) ([2]; 1 mg/kg): 4
Increased bone, periosteum, Minimal (number of animals) ([2]; 1 mg/kg): 1
Increased bone, periosteum, Moderate (number of animals) ([2]; 1 mg/kg): 0
Increased eroded surface, bone, Marked (number of animals) ([2]; 1 mg/kg): 0
Increased eroded surface, bone, Mild (number of animals) ([2]; 1 mg/kg): 3
Increased eroded surface, bone, Minimal (number of animals) ([2]; 1 mg/kg): 0
Increased eroded surface, bone, Moderate (number of animals) ([2]; 1 mg/kg): 2
Mixed cell inflammation, Marked (number of animals) ([2]; 1 mg/kg): 0
Mixed cell inflammation, Mild (number of animals) ([2]; 1 mg/kg): 2
Mixed cell inflammation, Minimal (number of animals) ([2]; 1 mg/kg): 1
Mixed cell inflammation, Moderate (number of animals) ([2]; 1 mg/kg): 4
No Visible Lesions (number of animals) ([2]; 1 mg/kg): 1
Erosion/Ulcer, cartilaginous, Marked (number of animals) ([2]; 3 mg/kg): 0
Erosion/Ulcer, cartilaginous, Mild (number of animals) ([2]; 3 mg/kg): 3
Erosion/Ulcer, cartilaginous, Minimal (number of animals) ([2]; 3 mg/kg): 3
Erosion/Ulcer, cartilaginous, Moderate (number of animals) ([2]; 3 mg/kg): 0
Granulation tissue, Marked (number of animals) ([2]; 3 mg/kg): 0
Granulation tissue, Mild (number of animals) ([2]; 3 mg/kg): 4
Granulation tissue, Minimal (number of animals) ([2]; 3 mg/kg): 0
Granulation tissue, Moderate (number of animals) ([2]; 3 mg/kg): 2
Increased bone, periosteum, Marked (number of animals) ([2]; 3 mg/kg): 0
Increased bone, periosteum, Mild (number of animals) ([2]; 3 mg/kg): 4
Increased bone, periosteum, Minimal (number of animals) ([2]; 3 mg/kg): 2
Increased bone, periosteum, Moderate (number of animals) ([2]; 3 mg/kg): 0
Increased eroded surface, bone, Marked (number of animals) ([2]; 3 mg/kg): 0
Increased eroded surface, bone, Mild (number of animals) ([2]; 3 mg/kg): 3
Increased eroded surface, bone, Minimal (number of animals) ([2]; 3 mg/kg): 2
Increased eroded surface, bone, Moderate (number of animals) ([2]; 3 mg/kg): 0
Mixed cell inflammation, Marked (number of animals) ([2]; 3 mg/kg): 0
Mixed cell inflammation, Mild (number of animals) ([2]; 3 mg/kg): 2
Mixed cell inflammation, Minimal (number of animals) ([2]; 3 mg/kg): 0
Mixed cell inflammation, Moderate (number of animals) ([2]; 3 mg/kg): 4
No Visible Lesions (number of animals) ([2]; 3 mg/kg): 2
Erosion/Ulcer, cartilaginous, Marked (number of animals) ([2]; 10 mg/kg): 0
Erosion/Ulcer, cartilaginous, Mild (number of animals) ([2]; 10 mg/kg): 1
Erosion/Ulcer, cartilaginous, Minimal (number of animals) ([2]; 10 mg/kg): 1
Erosion/Ulcer, cartilaginous, Moderate (number of animals) ([2]; 10 mg/kg): 0
Granulation tissue, Marked (number of animals) ([2]; 10 mg/kg): 0
Granulation tissue, Mild (number of animals) ([2]; 10 mg/kg): 1
Granulation tissue, Minimal (number of animals) ([2]; 10 mg/kg): 0
Granulation tissue, Moderate (number of animals) ([2]; 10 mg/kg): 0
Increased bone, periosteum, Marked (number of animals) ([2]; 10 mg/kg): 0
Increased bone, periosteum, Mild (number of animals) ([2]; 10 mg/kg): 0
Increased bone, periosteum, Minimal (number of animals) ([2]; 10 mg/kg): 0
Increased bone, periosteum, Moderate (number of animals) ([2]; 10 mg/kg): 0
Increased eroded surface, bone, Marked (number of animals) ([2]; 10 mg/kg): 0
Increased eroded surface, bone, Mild (number of animals) ([2]; 10 mg/kg): 0
Increased eroded surface, bone, Minimal (number of animals) ([2]; 10 mg/kg): 1
Increased eroded surface, bone, Moderate (number of animals) ([2]; 10 mg/kg): 0
Mixed cell inflammation, Marked (number of animals) ([2]; 10 mg/kg): 0
Mixed cell inflammation, Mild (number of animals) ([2]; 10 mg/kg): 1
Mixed cell inflammation, Minimal (number of animals) ([2]; 10 mg/kg): 0
Mixed cell inflammation, Moderate (number of animals) ([2]; 10 mg/kg): 1
No Visible Lesions (number of animals) ([2]; 10 mg/kg): 6
